This note sets out measurements from ChEMBL document CHEMBL1641538, “Synthesis of a novel human PPARδ selective agonist and its stimulatory effect on oligodendrocyte differentiation” (Bioorg Med Chem Lett, 2011).

Assay [1] has as its target T1, Peroxisome proliferator-activated receptor delta (Homo sapiens, UniProt Q03181).
T1 sequence (Q03181 whole entry): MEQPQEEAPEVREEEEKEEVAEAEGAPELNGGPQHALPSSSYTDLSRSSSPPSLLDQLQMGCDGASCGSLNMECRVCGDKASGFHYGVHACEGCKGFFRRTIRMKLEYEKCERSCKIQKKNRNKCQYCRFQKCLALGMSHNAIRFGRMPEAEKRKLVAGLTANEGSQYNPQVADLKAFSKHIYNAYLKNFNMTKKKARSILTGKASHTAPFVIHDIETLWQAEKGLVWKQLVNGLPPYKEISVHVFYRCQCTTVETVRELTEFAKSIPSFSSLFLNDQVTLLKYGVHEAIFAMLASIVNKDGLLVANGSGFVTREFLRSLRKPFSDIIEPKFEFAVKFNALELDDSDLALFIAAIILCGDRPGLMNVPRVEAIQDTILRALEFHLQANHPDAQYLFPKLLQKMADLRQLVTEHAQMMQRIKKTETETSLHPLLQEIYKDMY
Briefly: Transactivation of Gal4-fused human PPARdelta DNA binding domain expressed in african green monkey CV1 cells by luciferase reporter gene assay. Format: cell-based, CV-1. (A reporter such as luciferase makes a cellular process visible.)

The target in assay [2] is T2, Peroxisome proliferator-activated receptor gamma (Homo sapiens, UniProt P37231).
T2 sequence (P37231 whole entry): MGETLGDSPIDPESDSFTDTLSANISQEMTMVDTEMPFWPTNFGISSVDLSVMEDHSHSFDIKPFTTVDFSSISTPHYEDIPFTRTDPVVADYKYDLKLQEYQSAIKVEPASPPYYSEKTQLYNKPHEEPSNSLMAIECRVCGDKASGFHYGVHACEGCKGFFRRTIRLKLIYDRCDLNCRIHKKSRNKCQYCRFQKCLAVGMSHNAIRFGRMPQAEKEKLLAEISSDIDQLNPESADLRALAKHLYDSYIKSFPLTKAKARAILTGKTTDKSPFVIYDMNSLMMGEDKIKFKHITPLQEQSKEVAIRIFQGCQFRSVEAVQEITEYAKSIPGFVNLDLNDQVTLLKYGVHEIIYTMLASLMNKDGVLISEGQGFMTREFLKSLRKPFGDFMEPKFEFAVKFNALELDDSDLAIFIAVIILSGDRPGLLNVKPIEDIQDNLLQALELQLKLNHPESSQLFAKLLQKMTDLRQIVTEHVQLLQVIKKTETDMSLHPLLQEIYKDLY
The assay is classed as cell-based, CV-1.

Assay [3] has as its target T2, Peroxisome proliferator-activated receptor gamma. Put plainly: Transactivation of full length human PPARgamma expressed in african green monkey CV1 cells by luciferase reporter gene assay. Format: cell-based, CV-1.
The next assay is filed under the species Homo sapiens. Briefly: Selectivity ratio of EC50 for full length human PPARalpha to EC50 for full length human PPARdelta.
Another assay is filed under the species Rattus norvegicus. Put plainly: Induction of Wistar rat oligodendrocyte differentiation at 0.1 uM after 3 days by O1 antibody staining. The assay is classed as functional.
The target of assay [4] is T3, Peroxisome proliferator-activated receptor alpha (Homo sapiens, UniProt Q07869).
T3 sequence (Q07869 whole entry): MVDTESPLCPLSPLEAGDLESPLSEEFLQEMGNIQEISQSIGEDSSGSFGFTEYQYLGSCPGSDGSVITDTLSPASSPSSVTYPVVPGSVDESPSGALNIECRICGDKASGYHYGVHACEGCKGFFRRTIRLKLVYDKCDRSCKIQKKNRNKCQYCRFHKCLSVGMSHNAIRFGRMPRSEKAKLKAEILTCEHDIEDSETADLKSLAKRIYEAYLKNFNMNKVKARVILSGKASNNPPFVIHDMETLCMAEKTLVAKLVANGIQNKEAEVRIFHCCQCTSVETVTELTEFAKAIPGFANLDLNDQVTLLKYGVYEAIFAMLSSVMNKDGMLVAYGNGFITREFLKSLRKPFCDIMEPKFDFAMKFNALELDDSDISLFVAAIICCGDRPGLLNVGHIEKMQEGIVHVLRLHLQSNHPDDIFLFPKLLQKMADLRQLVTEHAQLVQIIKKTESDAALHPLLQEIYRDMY
Briefly: Transactivation of full length human PPARalpha expressed in african green monkey CV1 cells by luciferase reporter gene assay. Format: cell-based, CV-1.

The target of assay [5] is PPAR delta/gamma (Homo sapiens) (UniProt P37231+Q03181). Put plainly: Selectivity ratio of EC50 for full length human PPARgamma to EC50 for full length human PPARdelta.
Assay [6] deals with T1, Peroxisome proliferator-activated receptor delta. Put plainly: Transactivation of full length human PPARdelta expressed in african green monkey CV1 cells by luciferase reporter gene assay. Format: cell-based, CV-1.
In assay [7] the target is T3, Peroxisome proliferator-activated receptor alpha. Briefly: Transactivation of Gal4-fused human PPARalpha DNA binding domain expressed in african green monkey CV1 cells by luciferase reporter gene assay. The assay is classed as cell-based, CV-1.

Structures are written as SMILES. Active and inactive are the calls of the source. The calls are words filed in the database; no cut-off is given here. Where only a bound is given, the exact number is not on record here.

As to `Cc1nc(-c2ccc(C(F)(F)F)cc2)sc1C(=O)NCc1ccc(OC(C)(C)C(=O)O)cc1` [GW590735], the figures for the EC50 in assay [1] and in assay [2] were 2.6 µM and > 10 µM, respectively.
As for `Cc1cc2c(CCc3nc(-c4ccc(Cl)cc4Cl)oc3C(C)C)noc2cc1OCC(=O)O`, the EC50 (as a rule, the concentration that produces a half-maximal response) in assay [3] is > 10 µM; in assay [4], > 10 µM; in [6] it was 0.0045 µM; in assay [2] it was > 10 µM; in assay [7], > 10 µM. The Ratio EC50 (in the assay filed under Homo sapiens; in [5]) was 2000 in each case. Moreover, in the assay filed under Rattus norvegicus, the outcome was Active.
